# In patent publication US20120029047A1, “USE OF HDAC INHIBITORS FOR THE TREATMENT OF BONE DESTRUCTION” (priority 2007, published 2012):
# Columns and labels:
# MM1S tumor bearing mice [1] = test: In vivo microCT analysis of tibial cortical bone density; design: species or system SCID-beige mice; conditions: Study #0879, 15 mg/kg, tibia
# Source text: Animals were anesthetized with 2% isoflurane mixed with oxygen (2 L/min.) and then placed in a mouse holder (custom made, Peter Ingold, NIBR Basel) specifically designed to align both tibiae and mounted into an in vivo high resolution microCT scanner (VivaCT40, Scanco, Switzerland). To insure correct positioning of the mouse, a scout view of bilateral tibia bones and knee joints was taken and the region of interest (ROI, 2.23 mm in length) was positioned to start at the growth plate extending distally over the area of the trabecular bone (FIG. 3). The scanner was set to a nominal isotropic voxel size of 21 μm, referred to as medium/standard resolution. […]
# For determination of trabecular and cortical bone features, a 2.23 mm region of interest was placed to start at the growth plate extending distally. […] Trabecular bone density (BV/TV) was measured in a 0.735 mm region of a tibia (9 slices proximal and 25 slices distal from the tibial tuberosity) using SCANCO software (SCANCO, Switzerland) with a threshold of 275 is used to define calcified bone volume (BV). Cortical bone density (BV/TV) was measured in a 1.5 mm region of a tibia (15 slices proximal and 55 slices distal from the tibial tuberosity) using SCANCO software (SCANCO Switzerland) with a threshold of 275. Three-dimensional analysis was performed on the determined regions utilizing the SCANCO operational software. […]
# MM1S cells [2] = test: MM1S disseminated multiple myeloma model, tumor burden by bioluminescence; format: in vivo, SCID-beige mice
# Procedure: Female SCID-beige mice were injected with MM1S cells (2×10^6) intravenously (iv) into the tail vein on Day 0. Treatment was initiated on Day 10 when the average tumor burden, as determined by bioluminescence, reached approximately 8.0×10^5-1.0×10^6 photons per second. All treatment groups consisted of 8 animals. […] Tumor burden and body weights were recorded once a week during the active dosing period. In vivo micro-computed tomography (microCT) images were acquired in live animals on day 32 and 33 (Study #1) or Day 34 and 35 (Study #2). In the second study, animals were individually monitored until achievement of clinical endpoint. Treatments were started on Day 10 post-iv tail implantation (2.0 million cells/animal). […] Vehicle control (D5W) was administered ip times per week, for 3 weeks. Initial group size: 8 animals. Final efficacy data and body weight change were calculated 72 hours post-last dose. Treatments were started on Day 10 post-iv tail implantation (2.0 million cells/animal). […] Vehicle control (D5W) was administered ip times per week, for 3 weeks. Initial group size: 8 animals. With respect to FIG. 2, treatments were started on Day 11 post-iv tail implantation (2.0 million cells/animal). NVP-LBH589-CU was administered ip, at 15 mg/kg (A), or 10 and 20 mg/kg (B), 5 times a week (qd×5/wk) for 4 weeks. Vehicle control (D5W) was administered ip 5 times a week (qd×5/wk), for 4 weeks. Bortezomib was administered iv, at 0.2 mg/kg, once per week (qwk) or 1 mg/kg, twice per week in Study #0879 for 4 weeks (biwk) (B). Initial group size: 8 animals. Final efficacy data are shown in the A panel for Study #0879 and B panel for Study #0942. Body weight changes were calculated on 24 hours post-last dose for each study (right panels).
# TRACP5B = test: Serum bio-marker TRACP5B ELISA (MouseTRAP Assay); format: in vivo, mouse
# Procedure: A serum marker of bone metabolism, TRACP5B, was assessed for mouse serum changes. The MouseTRAP™ Assay kit is an ELISA assay (Cat#SB-TR103, IDS Fountain Hills, Ariz.). Briefly, polyclonal […] TRACP5B antibodies are incubated in 96 well plates coated with anti-rabbit IgG. This ELISA kit is specific for mouse TRACP5B only. This assay has a reported sensitivity of 0.1 U/L.
# TRACP5B serum levels were evaluated as a measure of osteoclast activity. The level of a TRACP5B was analyzed in FIG. 7 and Table 12.
# MM1S cells [3] = test: Time to clinical endpoint in MM1S model (Study #0942); format: in vivo, SCID-beige mice; conditions: for Median Time to Clinical Endpoint: endpoint = clinical score of 3
# Procedure: Female SCID-beige mice were injected with MM1S cells (2×10^6) intravenously (iv) into the tail vein on Day 0. Treatment was initiated on Day 10 when the average tumor burden, as determined by bioluminescence, reached approximately 8.0×10^5-1.0×10^6 photons per second. All treatment groups consisted of 8 animals. […] Tumor burden and body weights were recorded once a week during the active dosing period. In vivo micro-computed tomography (microCT) images were acquired in live animals on day 32 and 33 (Study #1) or Day 34 and 35 (Study #2). In the second study, animals were individually monitored until achievement of clinical endpoint. […] Each animal was monitored daily for progression of signs of disease progression, including mobility and general health. Animals were scored on a clinical scale from 0-4. […] These animals were removed from analysis due to treatment related deaths. […] The median time to endpoint for the vehicle treated animals was 37 days.
# MM1S tumor bearing mice [4] = test: In vivo microCT analysis of tibial trabecular bone density; design: species or system SCID-beige mice; conditions: for increase in median trabecular bone density: after 4 weeks of treatment
# Source text: Animals were anesthetized with 2% isoflurane mixed with oxygen (2 L/min.) and then placed in a mouse holder (custom made, Peter Ingold, NIBR Basel) specifically designed to align both tibiae and mounted into an in vivo high resolution microCT scanner (VivaCT40, Scanco, Switzerland). To insure correct positioning of the mouse, a scout view of bilateral tibia bones and knee joints was taken and the region of interest (ROI, 2.23 mm in length) was positioned to start at the growth plate extending distally over the area of the trabecular bone (FIG. 3). The scanner was set to a nominal isotropic voxel size of 21 μm, referred to as medium/standard resolution. The X-ray tube was operated at 55 kVp and […] with a focal spot size of 5 μm. Five hundred projection images were acquired per scan with an integration time of 180 ms. Tomographic images were reconstructed on a VMS cluster (HP Alpha, HP, Palo Alto, USA) in 1024×1024 pixel matrices using a conebeam back projection procedure resulting in 315 axial slices.
# For determination of trabecular and cortical bone features, a 2.23 mm region of interest was placed to start at the growth plate extending distally. 106 axial slices were obtained using a μ-CT VivaCT40Scanner (SCANCO, Switzerland) with 55 kv, […], 180 ms integration time and 21 μm resolution. Trabecular bone density (BV/TV) was measured in a 0.735 mm region of a tibia (9 slices proximal and 25 slices distal from the tibial tuberosity) using SCANCO software (SCANCO, Switzerland) with a threshold of 275 is used to define calcified bone volume (BV). Cortical bone density (BV/TV) was measured in a 1.5 mm region of a tibia (15 slices proximal and 55 slices distal from the tibial tuberosity) using SCANCO software (SCANCO Switzerland) with a threshold of 275. Three-dimensional analysis was performed on the determined regions utilizing the SCANCO operational software. All treatment groups were scanned over the course of two days, with equal numbers of animals from each treatment group scanned each day.
# FIG. 4 describes a […] region of interest was placed to start at the growth plate extending distally. 106 axial slices were obtained using a μ-CT VivaCT40Scanner (SCANCO, Switzerland) with 55 kv, […], 180 ms integration time and 21 μm resolution. Trabecular bone density, bone volume/total volume (BV/TV), was measured in a 0.735 mm region of a tibia (10 slices proximal and 25 slices distal from the tibial tuberosity) using SCANCO software (SCANCO, Switzerland) with a threshold of 275. Cortical bone density, bone volume/total volume (BV/TV), was measured in a 1.5 mm region of a tibia (15 slices proximal and 55 slices distal from the tibial tuberosity) using SCANCO software (SCANCO Switzerland) with a threshold of 275.
# [5] = Study #0879, 15 mg/kg IP qdx5, 31 days after implantation
# [6] = Study #0942, 10 mg/kg IP qdx5, 35 days after implantation
# [7] = Study #0942, 20 mg/kg IP qdx5, 35 days after implantation
structure (smiles),measurement,setting,value
"Cc1[nH]c2ccccc2c1CCNCc1ccc(/C=C/C(=O)NO)cc1 [LBH589, N-hydroxy-3-[4-[[[2-(2-methyl-1H-indol-3-yl)-ethyl]-amino]methyl]phenyl]-2E-2-propenamide]",Mean Cortical Density (BV/TV),MM1S tumor bearing mice [1],98.3%
same,% Regression,MM1S cells [2]; [5],None
same,% T/C,MM1S cells [2]; [5],22%
same,Delta Mean Tumor Burden (mean ± SEM),MM1S cells [2]; [5],292.4E+6 ± 92.6E+6 photons/sec
same,reduction in tumor burden,"MM1S cells [2]; Study #0879, 15 mg/kg qdX5, Day 31",~78%
same,% Regression,MM1S cells [2]; [6],None
same,% T/C,MM1S cells [2]; [6],31%
same,Delta Mean Tumor Burden (mean ± SEM),MM1S cells [2]; [6],348.5E+6 ± 49.6E+6 photons/sec
same,reduction in tumor burden,"MM1S cells [2]; Study #0942, 10 mg/kg qdX5, Day 35",~79%
same,% Regression,MM1S cells [2]; [7],None
same,% T/C,MM1S cells [2]; [7],9%
same,Delta Mean Tumor Burden (mean ± SEM),MM1S cells [2]; [7],107.7E+6 ± 42.6E+6 photons/sec
same,reduction in tumor burden,"MM1S cells [2]; Study #0942, 20 mg/kg qdX5, Day 35",~91%
same,significance of reduction in tumor burden,MM1S cells [2]; both studies (#0879 and #0942),statistically significant
same,Mean TRACP5B Serum Levels,"TRACP5B; Study #0879, 15 mg/kg",7.1
same,decrease of serum levels of TRACP5B compared to vehicle,"TRACP5B; Study #0879, LBH589 alone",41%
same,Median Time to Clinical Endpoint,"MM1S cells [3]; Study #0942, 10 mg/kg",54 days
same,animals without symptoms of disease 80 days after implant,"MM1S cells [3]; Study #0942, 20 mg/kg",One of the remaining six
same,Median Time to Clinical Endpoint,"MM1S cells [3]; Study #0942, 20 mg/kg",61 days
same,increase in mean trabecular bone density,"MM1S tumor bearing mice [4]; Study #0879, 15 mg/kg, after 3 weeks of treatment",5.5 fold
same,Mean Trabecular Density (BV/TV),"MM1S tumor bearing mice [4]; Study #0879, 15 mg/kg, tibia",14.48 % BV/TV
same,increase in median trabecular bone density,"MM1S tumor bearing mice [4]; Study #0942, 10 mg/kg",11.8 fold
same,Median Trabecular Density (BV/TV),"MM1S tumor bearing mice [4]; Study #0942, 10 mg/kg, tibia",8.23 % BV/TV
same,increase in median trabecular bone density,"MM1S tumor bearing mice [4]; Study #0942, 20 mg/kg",19.1 fold
same,Median Trabecular Density (BV/TV),"MM1S tumor bearing mice [4]; Study #0942, 20 mg/kg, tibia",12.89 % BV/TV
